Entries after “also recorded” stand apart in the source; their conditions may differ. No end group written: not given here. *: point of attachment. Biotin = O=C1N[C@H]2[C@H](CS[C@H]2CCCCC(=O)*)N1
Test system: insulin
Experiment: electrochemical impedance spectroscopy
Type: binding
Conditions: two experimental cases and one scrambled sequence; different insulin concentrations; PBS

EACVESGGGENLYFQK(Biotin) [scrambled sequence]
raw phase change (Zphz) across different frequencies: The largest change across different frequencies is observed in the scrambled sequence negative control compared to the other two experimental cases; also recorded: The largest change across different frequencies was observed in (C)

— article PMC11411520 (ACS Omega, 2024)
